Results taken from patent publication US20060189663A1, “Pyrrole-2,5-dithione derivatives as liver x receptor modulators” (AstraZeneca AB, priority 2003, published 2006).

Test system: T1, LXRalpha and/or beta
T1 construct: fused on or other part: His-tag (6xHis) on the LXR-LBD
Assay: Co-activator recruitment assay (time-resolved fluorescence, LXR-LBD / SRC-1 peptide)
Format: biochemical, human
Settings: LXR isoform (alpha or beta) not stated; 22-R Hydroxycholesterol at 50 μM as 100% control; read-out: EC50 in coactivator recruitment assays
Text: Co-Activator Recruitment Assay The Ligand Binding Domain (LBD) of human LXRalpha (amino acid 205-447) and LXRbeta (amino acid 216-461) was produced by recombinant techniques in E coli. A fragment of the human Steroid Receptor Co-Activator-1 (SRC-1) was produced as a synthetic peptide. An anti-6His-antibody coupled with Europium (Eu^3+) was used to recognize the His-tag on the LXR-LBD and Allophycocyanin (APC) coupled to streptavidin was used to recognize the biotinylated SRC-1. Agonist binding to LXRalpha or LXRbeta enhances the affinity of LXR towards SRC-1 and thereby brings Eu^3+ and APC in close proximity. Eu^3+ is excited at 337 nm and emitts light at 620 nm. This emission, when in close proximity, excites APC to emit light at 665 nm.
Dilution plates with compounds in DMSO were further diluted in buffer {20 mM [Tris(hydroxymethyl)aminomethane] pH 7.5, 0.125% CHAPS {3-[(3-Cholamidopropyl)dimethylammonio]-1-propanesulfonate}, 2 mM DTT (Dithiothreitol) and 0.05% BSA (Bovine Serum Albumin)} in order to reduce DMSO concentration, 0.5 μl to 13.5 μl. To this, 6 μl assay mix was added and the plates (384-well V-groove plates) were incubated at room temperature for 60 to 80 min. […] Time-resolved fluorescence readings were done in a Wallac Victor reader at 665 nm followed by reading at 615 nm. […]

## Nc1ccc(CN2C(=S)C(Nc3ccc(OC(F)F)cc3)=C(c3ccccc3)C2=S)cn1 [Example 18, 1-[(6-Aminopyridin-3-yl)methyl]-3-{[4-(difluoromethoxy)phenyl]amino}-4-phenyl-1H-pyrrole-2,5-dithione]
  EC50: 140 nM

## CCCCN1C(=O)C(c2ccccc2)=C(Nc2ccc(OC)cc2)C1=S [Example 7, 1-Butyl-4-[(4-methoxyphenyl)amino]-3-phenyl-5-thioxo-1,5-dihydro-2H-pyrrol-2-one]
  EC50: 90 nM
